# Experimental data taken from patent publication US20180071339A1, “COMBINATION OF PHARMACEUTICAL PREPARATIONS FOR TUMOR CHEMOTHERAPY” (HUBEI SOUNDNY BIOTECHNOLOGY CO., LTD., priority 2015, published 2018).
# Counter-ions that a name gives are not always drawn.
# Columns and labels:
# [1] = test system: human breast cancer cells MCF-7; assay: uptake of doxorubicin drugs by MCF-7, two-photon confocal microscope; type: cell-based; conditions: 1 μg/ml doxorubicin hydrochloride for 4 hours, test group first incubated with cell vesicles for 12 hours, FIG. 3
# Description: (§1) Cell vesicles derived from human breast cancer cell line MCF-7 are obtained in accordance with the method in Example 2;
# (§2) 1×10^5 human breast cancer cells MCF-7, tumor repopulating cells MCF-7/TRC, human breast cancer doxorubicin hydrochloride drug resistant cells ADR/MCF-7 were planted in the confocal dish, respectively. Cell vesicles that prepared above and derived from human breast cancer cell lines MCF-7 are added to the dish containing the above three kinds of cells respectively, with amount of 5×10^5/dish, and incubated for 12 hours, used as a test group;
# (§3) Human breast cancer cells MCF-7, tumor repopulating cells MCF-7/TRC, and human breast cancer doxorubicin hydrochloride drug resistant strains ADR/MCF-7 without addition of cell vesicles are used as a control group. […]
# [2] = test system: mouse bladder cancer cell line MB49; assay: mouse orthotopic bladder cancer model; type: in vivo, C57 mice; conditions: compared to mice firstly treated with cell vesicles then administered with Dox or HCPT; bladder infusion; bladders taken on day 12; FIGS. 7A and 7B
# Description: Mouse bladder cancer cells are cultured with 10% of FBS 1640 basal medium until logarithm phase, and are resuspended with PBS into cell suspension with a cell concentration of 10^7/mL after being digested with trypsin. After C57 mice were anesthetized, 100 uL 0.1 mg/mL of polylysin solution are infused into mouse bladder using intravenous indwelling needle for pre-treatment for 20 min, and then 100 uL cell suspension are infused into the bladder after the polylysin solution is excreted, and cell suspension is excreted after holding for 1 h.
# Preparing the cell vesicles with chemotherapy drugs wrapped therein: 100 uL chemotherapy drug (Dox or HCPT) are administered to 1 ml 1×10^7 mouse bladder cancer cells (1 mg/mL); 48 hours after administration of chemotherapy drugs, firstly centrifuging cell culture medium that contains apoptotic tumor cells at the rotational speed of 1300 rpm, 5000 rpm, respectively, each for 10 minutes and collecting a first supernatant; then centrifuging the first supernatant at the centrifugal force of 14000 g for 1 minute to remove cells and debris, and collecting a second supernatant; further centrifuging the second supernatant at the centrifugal force of 14000 g for 1 hour, then collecting precipitate to obtain cell vesicles with chemotherapy drugs wrapped therein. […]
# [3] = test system: human breast cancer doxorubicin hydrochloride drug resistant strains ADR/MCF-7; assay: uptake of doxorubicin drugs by ADR/MCF-7, two-photon confocal microscope; type: cell-based; conditions: 1 μg/ml doxorubicin hydrochloride for 4 hours, test group first incubated with cell vesicles for 12 hours, FIG. 3
# Description: as §1, §2, §3
# [4] = test system: tumor repopulating cells MCF-7/TRC; assay: uptake of doxorubicin drugs by MCF-7/TRC, two-photon confocal microscope; type: cell-based, human; conditions: 1 μg/ml doxorubicin hydrochloride for 4 hours, test group first incubated with cell vesicles for 12 hours, FIG. 3
# Text: as §1
# 5000 MCF-7 human breast cancer cells are planted in the three-dimensional fibrous protein gel, and after 5 days culturing, a stem cell-like colony is formed, these cells are referred to as tumor repopulating cells, that is, MCF-7/TRC.
# as §2, §3
# [5] = test system: human breast cancer cells MCF-7; assay: excretion of doxorubicin drugs from MCF-7 cells, two-photon confocal microscope; type: cell-based; conditions: 1 μg/ml doxorubicin for 4 hours; test group first incubated with 5×10^5 cell vesicles for 12 hours; FIG. 2
# Description: Human breast cancer cell line MCF-7 is cultured in RPMI Medium 1640, so that the cell amount reaches 2×10^7/ml; human breast cancer cell line MCF-7 is exposed to UV radiation for 60 minutes; 18 hours after UV radiation, human breast cancer cell line MCF-7 starts apoptosis, which is observed under microscope; collecting cell vesicles from the above apoptotic tumor cells by centrifugation or filtration procedure, as described in Example 1;
# 1×10^5 normally cultured human breast cancer cells MCF-7 are planted in a confocal dish, and then 5×10^5 cell vesicles prepared above and derived from human breast cancer cell line MCF-7 are added into the confocal dish and incubated with MCF-7 for 12 hours, and used as a test group (i.e., MCF-7 cells+MPs); 1×10^5 human breast cancer cells MCF-7 without adding the cells vesicles are used as a control group (i.e., MCF-7 cells).
# The test group and the control group are washed once with PBS respectively, and then a medium containing 1 μg/ml of doxorubicin drugs is added, 4 hours later, two groups are stabilized with 4% of paraformaldehyde for 20 minutes, the excretion of doxorubicin drugs from the human breast cancer cell MCF-7 in test group and control group is observed under the Two-photon confocal microscope.
SMILES,doxorubicin drug content in the nucleus [1],treatment effects [2],drug content in nucleus [3],drug content in nucleus [4],doxorubicin drug quantity in nucleus [5],excretion of doxorubicin drugs from MCF-7 cells [5]
"COc1cccc2c1C(=O)c1c(O)c3c(c(O)c1C2=O)C[C@@](O)(C(=O)CO)C[C@@H]3O[C@H]1C[C@H](N)[C@H](O)[C@H](C)O1 [doxorubicin, doxorubicin hydrochloride]",not high,weaker treatment effects,less than that in control group MCF-7,less than that in control group MCF-7,drug quantity in nucleus is not high,excrete a great number of drugs outside of the cell membrane
"CC[C@@]1(O)C(=O)OCc2c1cc1n(c2=O)Cc2cc3cc(O)ccc3nc2-1 [HCPT, hydroxycamptothecin]",–,weaker treatment effects,–,–,–,–
